Patent publication US8232274B2, “Pyridazinone derivatives useful as glucan synthase inhibitors” (Albany Molecular Research, Inc., priority 2007, dated 2012)

Assays:
glucan synthase [1] = molecular target: T1, glucan synthase (Saccharomyces cerevisiae, UniProt P38631); test: β(1,3) glucan synthase assay, S. cerevisiae PM503 permeabilized cells or membrane preparation (IC50); assay type: biochemical
T1 construct: glucan synthase sources (2 μL permeabilized PM503 cells, or 3 μL membrane preparations from either PM503, BWP17, or ND158); endogenous in cells; host or cells: S. cerevisiae strain PM503, permeabilized cells or 100,000 g membrane fraction
Procedure: (§1) β(1,3) Glucan Synthase Assay:
1. Preparation of Permeabilized Saccharomyces cerevisiae Cells.
Permeabilization of yeast cells was performed according to Crotti et al. (Analytical Biochemistry, 292, 8-16, 2001) with some modifications. A 10 ml-starter culture of the S. cerevisiae strain in YPD medium (1% yeast extract, 2% bacto-peptone, 2% dextrose) with OD600=3-4 was used to inoculate 1 liter of YPD. The culture was grown at 30° C. until […]. Cells were collected by centrifugation (5,300 g for 15 min at 4° C.) and resuspended in buffer (40 mM EDTA, 100 mM β-mercaptoethanol) at 1 g of cell pellet/3.5 ml buffer. The cell suspension was shaken for 30 min at 30° C., followed by centrifugation at 12,000 g for 10 min at 4° C. The cell pellet was washed with 5 ml 0.8 M sorbitol and resuspended in 6.8 ml of 2.9 mM citric acid, 11.3 mM dibasic sodium phosphate, 1 mM EDTA, 0.8 M sorbitol, with constant shaking at 30)C for 30 min. After centrifugation at 12,000 g for […] at 4° C., the pellet was resuspended in 31.3 ml 50 mM Tris-HCl, pH 7.0, and incubated on ice for 5 min. The mixture was then centrifuged at 12,000 g for 10 min at 4 AC, and the pellet was resuspended in 1 ml of 50 mM Tris-HCl and 33% glycerol, pH 7.5. The permeabilized cell preparation was stored at […] in aliquots.
(§2) 2. Preparation of Membrane Fraction of Yeast Cells
(§3) The protocol was modified from Douglas et al. (Journal of Bacteriology, 176, 5686-5696, 1994). For the preparation of S. cerevisiae and C. albicans membrane fractions, 1 liter of YPD supplemented with 0.02 mg/mL adenine and 0.08 mg/mL uracil was inoculated with 10 mL starter culture of PM503 (OD600=4) or the C. albicans strain BWP17 (OD600=12) in the same medium and grown at 30° C. until OD600 reached about 1. A. fumigatus (stain ND158) membranes were prepared by first preparing a spore suspension from agar slants by adding 6 mL of sterile saline, 0.1% Tween-20 solution to each slant, and resuspending by pipetting and scraping. The spore suspensions were used to inoculate two 200 mL flasks containing Sabouraud dextrose broth media. Cultures were incubated at 37° C., 250 rpm for ˜8 hrs. All cells, S. cerevisiae, C. albicans or A. fumigatus were harvested by centrifugation at 5,300 g at 4° C. for 40 minutes. After washing with 100 mL of breakage buffer (0.1 M KPi, pH 7.0, 1 mM EDTA, 1 mM DTT), the cell pellet was resuspended in 50 ml ice-cold breakage buffer. The mixture was transferred to a bead-beater chamber packed in ice (BioSpec Products, Bartlesville, Okla.). To each 50 mL sample was added 50 g of acid-washed glass beads ([…], Sigma). Cells were disrupted using 12×20 second pulses with 2 min-cooling intervals. Cell debris was removed by centrifugation at 3,000 g for 20 minutes at 4° C., and the supernatant was collected and centrifuged at 100,000 g for 1 hour at 4° C. to pellet the membrane fraction. The pellet was resuspended in 5 mL of ice-cold breakage buffer containing 25% glycerol, homogenized with a Dounce tissue homogenizer and stored at −80° C. in small aliquots.
(§4) 3. Glucan Synthase Assay and Compound Screening
The assay was performed according to Mo et at (Journal of Biological Chemistry, 269, 31267-31274, 1994) and Taft et al. (The Journal of Antibiotics, 47, 1001-1009, 1994), in a 96-well Optiplate (PerkinElmer). To each well was added 3 μL 10× compound stock (in 100% DMSO), or 3 μL of 30 μg/mL caspofungin in 100% DMSO (as positive control), or 3 μL 100% DMSO (as negative control), followed by the addition of appropriate amount of glucan synthase sources (2 μL permeabilized PM503 cells, or 3 μL membrane preparations from either PM503, BWP17, or ND158). The reaction was initiated by adding 25 μL reaction buffer (0.6 mM UDP-Glucose 0.6 nCi [U-^14C]DUP-Glucose (327 mCi/mmol, Amersham Bioscience), 20 μM GTP-γ-S, 25 mM NaF, 7.5 mg/mL BSA, 8% glycerol in 75 mM Tris-HCl, pH 7.5). […]

glucan synthase [2] = molecular target: T2, glucan synthase (Candida albicans, UniProt O13428); test: β(1,3) glucan synthase assay, C. albicans BWP17 membrane preparation (IC50); assay type: biochemical; settings: in vitro fungal enzyme activity assay, read-out: IC50 (μg/mL) Candida albicans (converted)
T2 construct: glucan synthase sources (2 μL permeabilized PM503 cells, or 3 μL membrane preparations from either PM503, BWP17, or ND158); endogenous in cells; host or cells: C. albicans strain BWP17, 100,000 g membrane fraction
Procedure: as §1, §2, §3, §4
The assay was performed according to Mo et at (Journal of Biological Chemistry, 269, 31267-31274, 1994) and Taft et al. (The Journal of Antibiotics, 47, 1001-1009, 1994), in a 96-well Optiplate (PerkinElmer). To each well was added 3 μL 10× compound stock (in 100% DMSO), or 3 μL of 30 μg/mL caspofungin in 100% DMSO (as positive control), or 3 μL 100% DMSO (as negative control), followed by the addition of appropriate amount of glucan synthase sources (2 μL permeabilized PM503 cells, or 3 μL membrane preparations from either PM503, BWP17, or ND158). The reaction was initiated by adding 25 μL reaction buffer (0.6 mM UDP-Glucose 0.6 nCi [U-^14C]DUP-Glucose (327 mCi/mmol, Amersham Bioscience), 20 μM GTP-γ-S, 25 mM NaF, 7.5 mg/mL BSA, 8% glycerol in 75 mM Tris-HCl, pH 7.5). The plate was incubated on a shaker for 1.5 hour at room temperature before being quenched with 250 μL 1% TCA (Trichloroacetic Acid). The quenched reaction was mixed by pipetting, and immediately transferred to a 96-well filter plate (Glass fiber B on 0.65 μm hydrophilic durapore membrane, Millipore) pre-wetted with wash buffer (5% TCA, 60 mM NaPPi). The glucan product was retained on the filter membrane by applying vacuum to the plate using a MultiScreen Resist Vacuum Manifold (Millipore). The filter plate was further washed 4 times with 200 μL wash buffer. The plate was dried at 50° C. for 30 minutes. 100 μL of Microscint-0 (PerkinElmer) was added to each well, and plate was counted in a TopCount NXT plate reader (PerkinElmer).
Dose-response curves were plotted from inhibition data generated. IC50 was determined by fitting the CPM versus the Concentration of the test compound plot with the following equation (4-parameter logistic model, ID Business Solutions XLfit 4.2).

T2 sequence (O13428 1-1897): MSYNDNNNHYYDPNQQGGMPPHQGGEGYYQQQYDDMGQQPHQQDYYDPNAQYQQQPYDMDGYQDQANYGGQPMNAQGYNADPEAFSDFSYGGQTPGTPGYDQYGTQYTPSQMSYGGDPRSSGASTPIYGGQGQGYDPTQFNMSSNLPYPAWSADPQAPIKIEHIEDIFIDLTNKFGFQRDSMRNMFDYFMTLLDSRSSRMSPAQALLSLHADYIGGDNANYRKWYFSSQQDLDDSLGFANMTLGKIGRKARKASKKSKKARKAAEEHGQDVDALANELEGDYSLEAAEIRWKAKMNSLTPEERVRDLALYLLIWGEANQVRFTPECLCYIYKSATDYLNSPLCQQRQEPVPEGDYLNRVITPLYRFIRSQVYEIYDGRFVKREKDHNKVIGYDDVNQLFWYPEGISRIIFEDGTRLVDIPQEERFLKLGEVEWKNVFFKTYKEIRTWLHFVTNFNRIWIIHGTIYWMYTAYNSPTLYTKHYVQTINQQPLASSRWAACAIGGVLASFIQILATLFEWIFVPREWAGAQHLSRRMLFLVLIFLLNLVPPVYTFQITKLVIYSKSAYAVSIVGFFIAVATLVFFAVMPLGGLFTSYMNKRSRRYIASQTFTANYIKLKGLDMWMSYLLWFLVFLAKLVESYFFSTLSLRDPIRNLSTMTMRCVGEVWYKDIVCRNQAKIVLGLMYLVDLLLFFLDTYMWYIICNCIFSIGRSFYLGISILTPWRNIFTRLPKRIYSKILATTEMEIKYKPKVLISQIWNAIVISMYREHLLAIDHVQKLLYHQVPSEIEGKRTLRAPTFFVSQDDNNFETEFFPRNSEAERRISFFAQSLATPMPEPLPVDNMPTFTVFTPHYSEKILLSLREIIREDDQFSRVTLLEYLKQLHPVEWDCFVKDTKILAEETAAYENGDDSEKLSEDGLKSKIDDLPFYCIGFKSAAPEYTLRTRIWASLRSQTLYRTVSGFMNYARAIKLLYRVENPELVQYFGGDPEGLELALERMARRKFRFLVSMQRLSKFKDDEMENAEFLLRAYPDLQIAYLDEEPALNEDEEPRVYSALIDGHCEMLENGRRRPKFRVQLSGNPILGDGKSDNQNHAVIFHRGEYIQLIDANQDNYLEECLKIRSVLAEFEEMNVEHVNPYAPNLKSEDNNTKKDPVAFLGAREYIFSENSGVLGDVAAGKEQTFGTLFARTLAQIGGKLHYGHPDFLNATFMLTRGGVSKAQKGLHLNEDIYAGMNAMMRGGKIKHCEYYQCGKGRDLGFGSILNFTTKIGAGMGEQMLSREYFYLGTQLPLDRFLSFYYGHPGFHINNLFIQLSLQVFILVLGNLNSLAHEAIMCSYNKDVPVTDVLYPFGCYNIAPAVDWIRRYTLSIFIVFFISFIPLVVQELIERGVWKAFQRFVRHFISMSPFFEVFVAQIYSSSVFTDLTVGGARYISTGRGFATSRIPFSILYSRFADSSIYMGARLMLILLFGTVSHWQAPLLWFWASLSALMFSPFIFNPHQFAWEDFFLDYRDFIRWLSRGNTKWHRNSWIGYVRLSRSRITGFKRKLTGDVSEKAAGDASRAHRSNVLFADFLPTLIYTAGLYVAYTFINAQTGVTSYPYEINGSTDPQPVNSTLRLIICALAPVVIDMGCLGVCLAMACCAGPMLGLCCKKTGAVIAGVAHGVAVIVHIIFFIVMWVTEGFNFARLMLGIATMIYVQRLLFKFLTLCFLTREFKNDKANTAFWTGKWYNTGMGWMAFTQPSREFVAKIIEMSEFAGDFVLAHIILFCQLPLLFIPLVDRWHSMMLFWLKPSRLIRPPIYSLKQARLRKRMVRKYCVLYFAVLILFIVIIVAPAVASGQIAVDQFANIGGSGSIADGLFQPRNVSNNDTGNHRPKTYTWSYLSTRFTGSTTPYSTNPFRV
T2 sequence (O42825 1-195 partner limits assumed): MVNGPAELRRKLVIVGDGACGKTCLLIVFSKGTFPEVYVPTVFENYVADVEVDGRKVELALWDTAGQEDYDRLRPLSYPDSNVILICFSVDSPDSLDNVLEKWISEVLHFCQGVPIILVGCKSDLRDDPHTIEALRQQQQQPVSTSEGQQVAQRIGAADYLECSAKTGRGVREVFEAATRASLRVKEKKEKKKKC
T1 sequence (P06780 1-206): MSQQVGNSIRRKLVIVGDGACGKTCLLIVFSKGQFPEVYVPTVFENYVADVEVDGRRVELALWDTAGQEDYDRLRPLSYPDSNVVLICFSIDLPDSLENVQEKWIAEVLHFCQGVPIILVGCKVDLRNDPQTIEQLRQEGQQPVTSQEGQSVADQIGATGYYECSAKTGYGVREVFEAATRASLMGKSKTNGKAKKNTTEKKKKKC
T1 sequence (P38631 whole entry): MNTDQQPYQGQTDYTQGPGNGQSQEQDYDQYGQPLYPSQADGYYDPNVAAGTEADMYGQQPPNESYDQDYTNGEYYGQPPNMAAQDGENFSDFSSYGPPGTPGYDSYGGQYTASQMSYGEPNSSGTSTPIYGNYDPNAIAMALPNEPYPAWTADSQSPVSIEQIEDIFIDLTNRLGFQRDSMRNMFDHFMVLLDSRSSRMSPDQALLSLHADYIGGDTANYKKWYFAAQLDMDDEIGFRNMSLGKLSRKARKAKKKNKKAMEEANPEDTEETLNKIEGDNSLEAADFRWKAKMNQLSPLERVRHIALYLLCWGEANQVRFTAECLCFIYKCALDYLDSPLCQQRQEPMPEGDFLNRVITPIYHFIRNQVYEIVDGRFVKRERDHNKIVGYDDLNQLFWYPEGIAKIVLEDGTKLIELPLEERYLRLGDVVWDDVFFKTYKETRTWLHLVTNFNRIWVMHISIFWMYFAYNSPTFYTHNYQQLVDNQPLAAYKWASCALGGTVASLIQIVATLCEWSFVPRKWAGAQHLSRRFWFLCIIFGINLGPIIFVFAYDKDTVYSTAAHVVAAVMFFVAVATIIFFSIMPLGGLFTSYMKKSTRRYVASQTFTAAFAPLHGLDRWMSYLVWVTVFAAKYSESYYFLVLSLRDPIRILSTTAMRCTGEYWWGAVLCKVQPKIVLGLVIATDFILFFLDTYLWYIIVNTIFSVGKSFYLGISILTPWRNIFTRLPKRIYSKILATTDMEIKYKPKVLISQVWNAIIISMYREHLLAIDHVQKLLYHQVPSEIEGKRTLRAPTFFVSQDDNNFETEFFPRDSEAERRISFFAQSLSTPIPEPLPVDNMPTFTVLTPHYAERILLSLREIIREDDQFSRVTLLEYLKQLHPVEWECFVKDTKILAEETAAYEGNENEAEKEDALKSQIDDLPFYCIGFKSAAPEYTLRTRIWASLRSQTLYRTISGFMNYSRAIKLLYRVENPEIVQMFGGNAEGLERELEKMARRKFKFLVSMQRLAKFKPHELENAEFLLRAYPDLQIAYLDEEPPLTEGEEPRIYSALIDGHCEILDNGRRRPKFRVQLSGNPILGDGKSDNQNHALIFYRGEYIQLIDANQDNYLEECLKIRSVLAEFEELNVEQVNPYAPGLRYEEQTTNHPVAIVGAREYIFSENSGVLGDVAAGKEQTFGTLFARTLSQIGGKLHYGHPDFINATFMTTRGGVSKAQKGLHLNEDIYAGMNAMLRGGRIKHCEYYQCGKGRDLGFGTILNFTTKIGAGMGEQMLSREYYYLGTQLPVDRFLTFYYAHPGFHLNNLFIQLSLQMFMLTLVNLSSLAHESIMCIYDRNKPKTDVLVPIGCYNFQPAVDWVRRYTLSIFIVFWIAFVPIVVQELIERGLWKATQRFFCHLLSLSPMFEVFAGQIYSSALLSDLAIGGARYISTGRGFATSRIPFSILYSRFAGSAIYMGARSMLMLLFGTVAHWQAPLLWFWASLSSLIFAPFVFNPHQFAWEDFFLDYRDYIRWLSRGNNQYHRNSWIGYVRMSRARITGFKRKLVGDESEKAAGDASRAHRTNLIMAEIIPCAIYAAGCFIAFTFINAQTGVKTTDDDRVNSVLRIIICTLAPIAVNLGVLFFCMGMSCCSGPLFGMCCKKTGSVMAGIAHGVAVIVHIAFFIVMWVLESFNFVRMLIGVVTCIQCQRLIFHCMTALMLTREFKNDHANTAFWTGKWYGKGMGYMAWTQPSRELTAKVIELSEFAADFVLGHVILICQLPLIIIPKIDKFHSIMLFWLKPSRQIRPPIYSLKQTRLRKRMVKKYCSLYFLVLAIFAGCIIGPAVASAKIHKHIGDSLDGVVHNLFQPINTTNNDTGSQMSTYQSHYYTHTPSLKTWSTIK

Which results are given for `CC1(COc2c(N3CCN(S(=O)(=O)NCc4ccc(F)cc4)CC3)cnn(-c3cc(F)cc(F)c3)c2=O)CC1` [1734Z]?
IC50 (glucan synthase [1]): 106 nM; IC50 (glucan synthase [2]): 231 nM

What does the source list for `O=c1c(N2CCOCC2)c(N2CCN(S(=O)(=O)Cc3ccccc3)CC2)cnn1Cc1c(F)cccc1Cl` [30Z]?
IC50 (glucan synthase [1]): 712 nM; IC50 (glucan synthase [2]): 16000 nM

For `O=c1c(N2CCCCC2)c(N2CCN(S(=O)(=O)Cc3ccccc3)CC2)cnn1-c1ccc(F)cc1` [61Z], which IC50 (glucan synthase [1]) is on record?
Its IC50 is 625 nM.

And the IC50 (glucan synthase [2])?
The IC50 was 2540 nM.

With `Cc1ccc(Cc2c(N3CCN(S(=O)(=O)C(C)C)CC3)cnn(-c3cc(F)cc(F)c3)c2=O)cc1` [119Z] as the molecule, how does the IC50 (glucan synthase [1]) read?
The IC50 was 125 nM.

What about the IC50 (glucan synthase [2]) of the same molecule?
The IC50 was 1610 nM.

For `CC1(COc2c(N3CCN(S(=O)(=O)Cc4ccc5ncoc5c4)CC3)cnn(-c3cc(F)cc(F)c3)c2=O)CC1` [1891Z], which IC50 (glucan synthase [1]) is on record?
Its IC50 is 87.5 nM.

What about the IC50 (glucan synthase [2]) of the same molecule?
Its IC50 is 122 nM.

What does the source list for `CC1(COc2c(N3CCN(S(=O)(=O)NCc4ccc(N)cc4)CC3)cnn(-c3cc(F)cc(F)c3)c2=O)CC1` [1634Z]?
IC50 (glucan synthase [1]): 303 nM; IC50 (glucan synthase [2]): 196 nM

For `Cc1cc(CS(=O)(=O)N2CCN(c3cnn(-c4cccc(Cl)c4)c(=O)c3OCC3(C)CC3)CC2)ccc1N` [1869Z], which IC50 (glucan synthase [1]) is on record?
Its IC50 is 53.8 nM.

And the IC50 (glucan synthase [2])?
The IC50 was 143 nM.

What does the source list for `CC(C)S(=O)(=O)N1CCN(c2cnn(-c3cccc(F)c3)c(=O)c2OC2CCCCC2)CC1` [402Z]?
IC50 (glucan synthase [1]): 153 nM; IC50 (glucan synthase [2]): 794 nM

With `CC1(COc2c(N3CCN(S(=O)(=O)Cc4cccc(Cl)c4N)CC3)cnn(-c3cc(F)cc(F)c3)c2=O)CC1` [Compound 1574Zq] as the molecule, how does the IC50 (glucan synthase [1]) read?
Its IC50 is 69 nM.

What about the IC50 (glucan synthase [2]) of the same molecule?
The IC50 was 138 nM.

Which IC50 (glucan synthase [1]) does the source give for `CC1(COc2c(N3CCN(S(=O)(=O)Cc4ccc(I)cc4)CC3)cnn(-c3cccc(Cl)c3)c2=O)CC1` [312*, 2-(3-chlorophenyl)-5-(4-(4-iodobenzylsulfonyl)piperazin-1-yl)-4-((1-methylcyclopropyl)methoxy)pyridazin-3(2H)-one] here?
The IC50 was 91.6 nM.

What about the IC50 (glucan synthase [2]) of the same molecule?
Its IC50 is 107 nM.

`O=c1c(OC2CCCC2)c(N2CCN(S(=O)(=O)Cc3cc(Cl)cc(Cl)c3)CC2)cnn1-c1cccc(Cl)c1` [553Z] was tested. Which IC50 (glucan synthase [1]) did it give?
Its IC50 is 184 nM.

What about the IC50 (glucan synthase [2]) of the same molecule?
The IC50 was 351 nM.

Which IC50 (glucan synthase [1]) does the source give for `Nc1ccc(CS(=O)(=O)N2CCN(c3cnn(-c4cc(F)cc(F)c4)c(=O)c3OCC3(CF)CC3)CC2)cc1` [932Z] here?
Its IC50 is 71 nM.

What about the IC50 (glucan synthase [2]) of the same molecule?
The IC50 was 231 nM.

`O=c1c(OC2CCCC2)c(N2CCN(Cc3c(Cl)cccc3Cl)CC2)cnn1-c1cccc(Cl)c1` [208Z] was tested. Which IC50 (glucan synthase [1]) did it give?
Its IC50 is 206 nM.

What about the IC50 (glucan synthase [2]) of the same molecule?
Its IC50 is 2620 nM.

`Nc1ccc(CS(=O)(=O)N2CCN(c3cnn(-c4cc(F)cc(F)c4)c(=O)c3OC3CCC(F)C3)CC2)cc1` (stereo not shown) [1529Z-6] was tested. Which IC50 (glucan synthase [1]) did it give?
The IC50 was 35.5 nM.

What about the IC50 (glucan synthase [2]) of the same molecule?
The IC50 was 106 nM.

Which IC50 (glucan synthase [1]) does the source give for `CC1(COc2c(N3CCN(S(=O)(=O)Cc4ccc(N)c(Cl)c4)CC3)cnn(-c3cc(F)cc(F)c3)c2=O)CC1` [Compound 1574Zo] here?
Its IC50 is 51.7 nM.

What about the IC50 (glucan synthase [2]) of the same molecule?
Its IC50 is 69 nM.

With `COc1ccc(CS(=O)(=O)N2CCN(c3cnn(-c4cc(F)cc(F)c4)c(=O)c3OCC3(C)CC3)CC2)cc1N` [1864Z] as the molecule, how does the IC50 (glucan synthase [1]) read?
Its IC50 is 104 nM.

And the IC50 (glucan synthase [2])?
Its IC50 is 86.9 nM.

How did the IC50 (glucan synthase [1]) turn out when `CC1CCC(Oc2c(N3CCN(S(=O)(=O)CCCF)CC3)cnn(-c3cccc(Cl)c3)c2=O)C1` (stereo not shown) [1761Z] was run?
Its IC50 is 136 nM.

And the IC50 (glucan synthase [2])?
The IC50 was 312 nM.
